Test results: US20050037478A1, “Crystal structure of glutamate racemase (MurI)” (priority 2002, published 2005)

Legend:
[1] = biological target: recombinant H. pylori MurI (Helicobacter pylori, UniProt Q9ZLT0)
Excerpt: Kinetic constant for recombinant MurI were estimated by assaying its activity at various concentrations of protein and D-glutamic acid as described above.

[2] = biological target: T1, H. pylori MurI A75T mutant (Helicobacter pylori, UniProt Q9ZLT0, A75T); conditions: reverse direction
T1 sequence (Q9ZLT0 1-255 A75T): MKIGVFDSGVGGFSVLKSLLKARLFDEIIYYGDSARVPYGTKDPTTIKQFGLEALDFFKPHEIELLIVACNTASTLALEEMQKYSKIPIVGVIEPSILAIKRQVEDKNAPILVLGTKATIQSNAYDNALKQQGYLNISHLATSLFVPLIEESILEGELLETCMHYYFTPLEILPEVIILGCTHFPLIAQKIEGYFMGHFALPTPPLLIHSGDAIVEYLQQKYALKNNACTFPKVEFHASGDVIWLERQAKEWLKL

[3] = system: MurI resistance mutant proteins (A75T or E151K); experiment: Kinetic analysis of MurI resistance mutant proteins, forward direction (L-Glu→D-Glu); format: biochemical, H. pylori
Description: In this assay, the conversion of L-Glutamate to D-Glutamate was monitored spectrophotometrically through a two enzyme coupling system wherein, the production of D-glutamate is coupled to the incorporation of D-Glutamate into UDP-MurNAc-Ala-D-Glu by recombinant E. faecalis MurD, with concomitant hydrolysis of ATP to ADP and inorganic phosphate. […] Initial rates of reaction were determined by following the increase of absorbance at 360 nm in a 100 μL reaction volume containing 85 μL of reaction buffer (58 mM Tris, pH=8.0, 23.5 mM ammonium acetate, 23.5 mM magnesium acetate, 2.94 mM dithiothreitol, 2.94 mM adenosine triphosphate, 0.47 mM UDP-MurNAc-Ala, 0.47 mM MESG, 1.17 units./mL PNP, 16 μg/mL E. faecalis MurD, and 30 nM MurI) and 15 μL of L-Glutamate stock (0.05-10 mM). The increase in optical density at 360 nm was measured continuously in at 96 well microtitre plate in a Microplate Spectrophotometer System (Molecular Devices, SpectraMAX 250).

[4] = biological target: the molecule itself; experiment: X-ray crystallography, homodimer
[5] = biological target: the molecule itself; experiment: X-ray crystallography (molecular replacement), homodimer

`N[C@H](CCC(=O)O)C(=O)O` [D-glutamate] was tested, and the substrate inhibition [1] was “Severe substrate inhibition”, the Km ([1]; read-out: Km for D-glutamate) was 100 µM and the “shift of inhibition constant relative to the wild-type enzyme” value ([2]; mutant enzyme vs wild-type) was over 120 fold. The “substrate inhibition by D-glutamate” value ([2]; mutant enzyme) was “exhibits substrate inhibition”.

For `N[C@@H](CCC(=O)O)C(=O)O` [L-Glu, L-glutamate], the “elevation of KM for L-Glu relative to the native enzyme” value [3] was 10 fold and the “substrate inhibition by L-Glu” value [3] was “no substrate inhibition”.

B1: Enterococcus faecalis glutamate racemase (MurI), monomer chain of the homodimer (enzyme)
chain: MSNQEAIGLIDSGVGGLTVLKEALKQLPNERLIYLGDTARCPYGPRPAEQVVQFTWEMADFLLKKRIKMLVIACNTATAVALEEIKAALPIPVVGVILPGARAAVKVTKNNKIGVIGTLGTIKSASYEIAIKSKAPAIEVTSLACPKFVPIVESNQYRSSVAKKIVAETLQALQLKGLDTLILGCTHYPLLRPVIQNVMGSHVTLIDSGAETVGEVSMLLDYFDIAHTPEAPTQPHEFYTTGSAKMFEEIASSWLGIENLKAQQIHLGGNEND
notes: also called E. faecalis MurI; E. faecalis glutamate racemase
B1: binds [4].

B2: Helicobacter pylori glutamate racemase (MurI), monomer chain of the homodimer (enzyme)
chain: MKIGVFDSGVGGFSVLKSLLKARLFDEIIYYGDSARVPYGTKDPTTIKQFGLEALDFFKPHEIELLIVACNTASALALEEMQKYSKIPIVGVIEPSILAIKRQVEDKNAPILVLGTKATIQSNAYDNALKQQGYLNISHLATSLFVPLIEESILEGELLETCMHYYFTPLEILPEVIILGCTHFPLIAQKIEGYFMGHFALPTPPLLIHSGDAIVEYLQQKYALKNNACTFPKVEFHASGDVIWLERQAKEWLKL
notes: also called H. pylori MurI; H. pylori glutamate racemase
B2: binds [4].

B3: Enterococcus faecium glutamate racemase (MurI), monomer chain of the homodimer (enzyme)
chain: MIRLTDNRPIGFIDSGVGGLTVVKEALKQLPNENILFVGDTARCPYGPRPAEQVIQYTWEMTDYLVEQGIKMLVIACNTATAVALEEIKAALSIPVIGVILPGTRAAVKKTQNKQVGIIGTIGTVKSQAYEKALKEKVPELTVTSLACPKFVSVVESNEYHSSVAKKIVAETLAPLTTKKIDTLILGCTHYPLLRPIIQNVMGENVQLIDSGAETVGEVSMLLDYFNLSNSPQNGRTLCQFYTTGSAKLFEEIAEDWLGIGHLNVEHIELGGK
notes: also called E. faecium MurI; EF2
B3: binds [5].
